According to patent EP1939186A1, “5-Fluorouracil derivatives and their use for the treatment of cancer” (Sulfidris S.r.l., priority 2006, dated 2008):

Tests used:
Type in all cases: cell-based
[1] = tested on: Cisplatin resistant human ovarian cancer cells; test: Toxicity assay (printed MTD assay) on resistant cells; details: various concentrations (1-1000 µM) for 24, 48 or 72 hours
Experimental: Cisplatin resistant human ovarian cancer cells were treated with compounds of example 1 and 4 in comparison with 5-FU at various concentrations (1-1000 µM) for 24, 48 or 72 hours. MTD assay was used for toxicity study.

colon tumour cells DLD 1 = test: MTT assay (cell viability by mitochondrial dehydrogenase) on colon tumour cells; details: in vitro, range of concentrations 1-100 µM
Description: (§1) The compound described in example 4 has been tested in vitro on colon tumour cells HCT 116 and DLD 1. MTT assay was used for toxicity study (spectrophotometric measurement of cell viability by mitochondrial dehydrogenase).

[2] = tested on: colon tumour cells HCT 116; test: as above; details: in vitro, range of concentrations 1-100 µM
Description: as §1

Row | SMILES | biological activity in comparison with 5-FU [1] | inhibit growth of colon tumour cells (colon tumour cells DLD 1) | inhibit growth of colon tumour cells [2]
1 | CS(=O)(=O)SCCC(=O)OCn1cc(F)c(=O)[nH]c1=O [Example 1, (5-fluoro-2,4-dioxo-3,4-dihydropyrimidin-1(2H)-yl)methyl 3-(methylsulfonylthio)propanoate] | superior to 5-FU | – | –
2 | CS(=O)(=O)SCCOC(=O)CNC(=O)n1cc(F)c(=O)[nH]c1=O [Example 4, 2-(methylsulfonylthio)ethyl 2-(5-fluoro-2,4-dioxo-1,2,3,4-tetrahydropyrimidine-1-carboxamido)acetate] | superior to 5-FU | potently inhibit growth | potently inhibit growth
